These results are taken from ChEMBL document CHEMBL3046314, “Synthesis, cytotoxicity, and molecular properties prediction of novel 1,3-diarylpyrazole derivatives” (Med Chem Res, 2013).

SMILES strings stand for the structures. pIC50: −log10 of the molar value.

What all share (format): functional, cell-based
One test deals with HeLa. Briefly: Cytotoxicity against Homo sapiens (human) HeLa cells after 48 hr by MTT assay.
For a further test, the system named is HL-60. Briefly: Cytotoxicity against Homo sapiens (human) HL60 cells after 48 hr by MTT assay. The note with it: for pIC50: Homo sapiens, HL-60, 48 h, read-out: IC50; for IC50: hl-60.
The test system of another test is MCF7. The test can be described thus: Cytotoxicity against Homo sapiens (human) MCF7 cells after 48 hr by MTT assay. Particulars: for pIC50: Homo sapiens, MCF7, 48 h, read-out: IC50; for IC50: mcf7.
The next test deals with Raji. The test can be described thus: Cytotoxicity against Homo sapiens (human) Raji cells after 48 hr by MTT assay. The note with it: for pIC50: Homo sapiens, Raji, 48 h, read-out: IC50; for IC50: raji.
The next test has as its system MDA-MB-231. Briefly: Cytotoxicity against Homo sapiens (human) MDA-MB-231 cells after 48 hr by MTT assay. The note with it: MDA-MB-231, 48 h.

`CN1CCN(C(=O)c2cn(-c3ccccc3)nc2-c2cccnc2)CC1`: the pIC50 in the test with HeLa is less than 4.00; in the test with HL-60 it was less than 4.00; in the test on MCF7 it was less than 4.00; with Raji, 4.12; in the test with MDA-MB-231, less than 4.00.
For the molecule `O=C(O)c1cn(-c2ccccc2)nc1-c1ccncc1`, the pIC50 with HeLa, with HL-60, in the test with MCF7, in the test with Raji and with MDA-MB-231 was less than 4.00 throughout.
`O=C(O)c1cn(-c2ccccc2)nc1-c1cccnc1`: the negative-log IC50 (pIC50) in the test on HeLa, in the test with HL-60, in the test on MCF7, in the test with Raji and in the test with MDA-MB-231 was less than 4.00 throughout.
On to `O=C(c1cn(-c2ccccc2)nc1-c1cccnc1)N1CCN(c2ccc(C(F)(F)F)cc2)CC1`, for which the pIC50 in the test with HeLa was 4.54; with HL-60, 4.77; in the test on MCF7, 4.12; with Raji, 4.82; with MDA-MB-231 it was less than 4.00.
In the case of `COc1ccc(OC(=O)c2cn(-c3ccccc3)nc2-c2cccnc2)cc1`, the negative-log IC50 (pIC50) in the test on HeLa, in the test with HL-60, in the test with MCF7, in the test with Raji and in the test on MDA-MB-231 was less than 4.00 throughout.
As for `CC(C)c1cccc(OC(=O)c2cn(-c3ccccc3)nc2-c2cccnc2)c1`, the pIC50 with HeLa is less than 4.00; in the test on HL-60 it was 4.63; in the test on MCF7, 4.12; with Raji, 4.94; in the test with MDA-MB-231, less than 4.00.
As for `CC(C)(C)c1ccc(OC(=O)c2cn(-c3ccccc3)nc2-c2cccnc2)cc1`, the pIC50 in the test on HeLa is less than 4.00; in the test with HL-60 it was less than 4.00; with MCF7, less than 4.00; in the test on Raji, 4.37; with MDA-MB-231, less than 4.00.
Take `Cc1ccc(C(C)C)c(OC(=O)c2cn(-c3ccccc3)nc2-c2cccnc2)c1`: the pIC50 in the test with HeLa was less than 4.00; with HL-60, 4.64; in the test with MCF7, 4.07; in the test on Raji it was 4.69; in the test with MDA-MB-231, less than 4.00.
In the case of `O=C(Oc1ccc(-c2ccccc2)cc1)c1cn(-c2ccccc2)nc1-c1cccnc1`, the pIC50 in the test with HeLa and in the test with MDA-MB-231 was less than 4.00 in each case. Moreover, the IC50 entry in the test with HL-60, in the test with MCF7 and with Raji was “ND(Insoluble)” each time.
`O=C(Oc1ccc2ccccc2c1)c1cn(-c2ccccc2)nc1-c1cccnc1`: the pIC50 in the test with HeLa and in the test with MDA-MB-231 was less than 4.00 throughout. In addition, the IC50 entry in the test with HL-60, in the test on MCF7 and with Raji was “ND(Insoluble)” in each case.
As for `O=C(NCc1ccccc1)c1cn(-c2ccccc2)nc1-c1ccncc1`, the pIC50 in the test with HeLa, in the test with HL-60, with MCF7, in the test with Raji and with MDA-MB-231 was less than 4.00 in each case.
For `O=C(c1cn(-c2ccccc2)nc1-c1ccncc1)N1CCOCC1`, the pIC50 in the test on HeLa, with HL-60, in the test with MCF7, with Raji and in the test on MDA-MB-231 was less than 4.00 in each case.
Turning to `O=C(c1cn(-c2ccccc2)nc1-c1ccncc1)N1CCC(Cc2ccccc2)CC1`, the pIC50 in the test with HeLa was 4.48; with HL-60 it was 4.79; in the test on MCF7, 4.25; in the test with Raji, 4.67; in the test with MDA-MB-231, less than 4.00.
For `CN1CCN(C(=O)c2cn(-c3ccccc3)nc2-c2ccncc2)CC1`, in that order: less than 4.00, less than 4.00, less than 4.00, less than 4.00 and less than 4.00.
Consider `O=C(c1cn(-c2ccccc2)nc1-c1ccncc1)N1CCN(c2ccccc2)CC1`, for which the pIC50 with HeLa, in the test with HL-60, in the test on MCF7, in the test with Raji and in the test on MDA-MB-231 was less than 4.00 each time.
As for `O=C(c1cn(-c2ccccc2)nc1-c1ccncc1)N1CCN(c2ccc(C(F)(F)F)cc2)CC1`, the negative logarithm of the IC50 (pIC50) in the test on HeLa is less than 4.00; with HL-60 it was less than 4.00; with MCF7 it was less than 4.00; in the test on Raji, 5.02; in the test with MDA-MB-231, less than 4.00.
As to `O=C(c1cn(-c2ccccc2)nc1-c1ccncc1)N1CCN(c2ccncc2)CC1`, the pIC50 in the test on HeLa, in the test on HL-60, with MCF7, in the test on Raji and with MDA-MB-231 was less than 4.00 in each case.
As for `COc1ccc(OC(=O)c2cn(-c3ccccc3)nc2-c2ccncc2)cc1`, the pIC50 in the test on HeLa, in the test with HL-60, in the test on MCF7, in the test on Raji and with MDA-MB-231 was less than 4.00 in each case.
For `CCc1ccc(OC(=O)c2cn(-c3ccccc3)nc2-c2ccncc2)cc1`, the negative logarithm of the IC50 (pIC50) in the test with HeLa and in the test with MDA-MB-231 was less than 4.00 throughout. The IC50 result with HL-60, with MCF7 and in the test on Raji was “ND(Insoluble)” throughout.
Consider `CC(C)c1cccc(OC(=O)c2cn(-c3ccccc3)nc2-c2ccncc2)c1`, for which the pIC50 in the test with HeLa and with MDA-MB-231 was less than 4.00 throughout. Besides, the IC50 entry in the test on HL-60, with MCF7 and in the test with Raji was “ND(Insoluble)” throughout.
Turning to `CC(C)(C)c1ccc(OC(=O)c2cn(-c3ccccc3)nc2-c2ccncc2)cc1`, the pIC50 with HeLa was 4.45; in the test with HL-60, 4.73; in the test on MCF7 it was 4.49; with Raji, 4.48; in the test with MDA-MB-231, 4.46.
The matching figures for `Cc1ccc(C(C)C)c(OC(=O)c2cn(-c3ccccc3)nc2-c2ccncc2)c1`: less than 4.00, 4.75, less than 4.00, 4.98 and less than 4.00.
Consider `O=C(Oc1ccc(-c2ccccc2)cc1)c1cn(-c2ccccc2)nc1-c1ccncc1`, for which the negative logarithm of the IC50 (pIC50) with HeLa and in the test with MDA-MB-231 was less than 4.00 throughout. Besides, the IC50 result in the test on HL-60, in the test on MCF7 and in the test with Raji was “ND(Insoluble)” throughout.
In the case of `O=C(Oc1ccc2ccccc2c1)c1cn(-c2ccccc2)nc1-c1ccncc1`, the pIC50 is less than 4.00 in the test with HeLa; less than 4.00 in the test with HL-60; 4.35 in the test with MCF7; 4.92 in the test with Raji; less than 4.00 in the test with MDA-MB-231.
`O=C(NCc1ccccc1)c1cn(-c2ccccc2)nc1-c1cccnc1`: the pIC50 in the test on HeLa and with MDA-MB-231 was less than 4.00 throughout. The IC50 result in the test with HL-60, in the test with MCF7 and in the test with Raji was “ND(Insoluble)” in each case.
With `O=C(c1cn(-c2ccccc2)nc1-c1cccnc1)N1CCOCC1`, the negative logarithm of the IC50 (pIC50) in the test with HeLa, in the test with HL-60, in the test on MCF7, in the test on Raji and in the test with MDA-MB-231 was less than 4.00 throughout.
Take `O=C(c1cn(-c2ccccc2)nc1-c1cccnc1)N1CCC(Cc2ccccc2)CC1`: the pIC50 with HeLa is 4.60; in the test on HL-60 it was 4.79; in the test with MCF7 it was 4.49; in the test with Raji, 5.09; with MDA-MB-231, less than 4.00.
For `O=C(c1cn(-c2ccccc2)nc1-c1cccnc1)N1CCN(c2ccccc2)CC1`, the negative logarithm of the IC50 (pIC50) is less than 4.00 in the test on HeLa; 4.61 in the test with HL-60; less than 4.00 in the test with MCF7; 4.48 with Raji; less than 4.00 with MDA-MB-231.
For `O=C(c1cn(-c2ccccc2)nc1-c1cccnc1)N1CCN(c2ccncc2)CC1`, the negative logarithm of the IC50 (pIC50) in the test with HeLa, with HL-60, in the test on MCF7, with Raji and in the test on MDA-MB-231 was less than 4.00 in each case.
